Data published in article PMC5234683 (Psychopharmacology, 2014).
Like-named read-outs stand apart in the source and are kept apart here.

Tests used:
Alpha1B = conditions: read-out: Ki (nM) Alpha1B; PDSP database; ref PDSP http://pdsp.med.unc.edu/; cited from earlier work
5-HT3 = conditions: read-out: Ki (nM) 5-HT3; PDSP database; ref PDSP http://pdsp.med.unc.edu/; cited from earlier work
Alpha2C = conditions: read-out: Ki (nM) Alpha2C; PDSP database; ref PDSP http://pdsp.med.unc.edu/; cited from earlier work
5-HT5 = conditions: read-out: Ki (nM) 5-HT5; PDSP database; ref PDSP http://pdsp.med.unc.edu/; cited from earlier work
5-HT2C = conditions: read-out: Ki (nM) 5-HT2C; PDSP database; ref PDSP http://pdsp.med.unc.edu/; cited from earlier work
GABA-A = conditions: read-out: Ki (nM) GABA-A; PDSP database; ref PDSP http://pdsp.med.unc.edu/; cited from earlier work
H1 = conditions: read-out: Ki (nM) H1; PDSP database; ref PDSP http://pdsp.med.unc.edu/; cited from earlier work
D5R [1] = target: T1, D5R (Homo sapiens, UniProt P21918); test: DiscoveRx HitHunter cAMP accumulation assay, HEK293 cells; assay type: cell-based; conditions: agonist mode
Alpha1A = conditions: read-out: Ki (nM) Alpha1A; PDSP database; ref PDSP http://pdsp.med.unc.edu/; cited from earlier work
5-HT2A = conditions: read-out: Ki (nM) 5-HT2A; PDSP database; ref PDSP http://pdsp.med.unc.edu/; cited from earlier work
M5 = conditions: read-out: Ki (nM) M5; PDSP database; ref PDSP http://pdsp.med.unc.edu/; cited from earlier work
D3 = conditions: read-out: Ki (nM) D3; PDSP database; ref PDSP http://pdsp.med.unc.edu/; cited from earlier work
H4 = conditions: read-out: Ki (nM) H4; PDSP database; ref PDSP http://pdsp.med.unc.edu/; cited from earlier work
D3R [2] = target: T2, D3R (Homo sapiens, UniProt P35462); test: DiscoveRx PathHunter β-arrestin-2 recruitment assay, CHO-K1 cells; assay type: cell-based; conditions: agonist mode; concentrations up to 100 μM
Sigma-1 = conditions: read-out: Ki (nM) Sigma-1; PDSP database; ref PDSP http://pdsp.med.unc.edu/; cited from earlier work
D2R [3] = target: T3, D2R (Homo sapiens, UniProt P14416); test: Radioligand competition binding, [3H]-methylspiperone, HEK293 membranes; conditions: competition with 0.5 nM [3H]-methylspiperone; n=3
D1R–D2R heteromer = D1R–D2R heteromer (Homo sapiens, UniProt P14416+P21728); test: D1R–D2R-mediated calcium mobilization assay, co-transfected HEK293T cells; assay type: cell-based
5-HT7 = conditions: read-out: Ki (nM) 5-HT7; PDSP database; ref PDSP http://pdsp.med.unc.edu/; cited from earlier work
D1R [4] = target: T4, D1R (Homo sapiens, UniProt P21728); conditions: agonist mode; tested up to 0.1 mM
CB2 = conditions: read-out: Ki (nM) CB2; PDSP database; ref PDSP http://pdsp.med.unc.edu/; cited from earlier work
D1R [5] = target: T4, D1R; test: DiscoveRx PathHunter β-arrestin-2 recruitment assay, CHO-K1 cells; assay type: cell-based; conditions: agonist mode; concentrations up to 100 μM
MOR = conditions: read-out: Ki (nM) MOR; PDSP database; ref PDSP http://pdsp.med.unc.edu/; cited from earlier work
D2R [6] = target: T3, D2R; assay type: cell-based; conditions: agonist mode; 100 μM forskolin
SERT = conditions: read-out: Ki (nM) SERT; PDSP database; ref PDSP http://pdsp.med.unc.edu/; cited from earlier work
[7] = ref Sun et al. (2009); cited from earlier work
5-HT2B = conditions: read-out: Ki (nM) 5-HT2B; PDSP database; ref PDSP http://pdsp.med.unc.edu/; cited from earlier work
D5 = conditions: read-out: Ki (nM) D5; PDSP database; ref PDSP http://pdsp.med.unc.edu/; cited from earlier work
[8] = target: D1-like receptors in bovine striatal membranes (Bos taurus, UniProt Q95136); test: Bovine striatal radioligand binding assay, [3H]-SCH23390; conditions: read-out: Ki, one-site fit, 0.5 nM [3H]-SCH23390
D4 = conditions: read-out: Ki (nM) D4; PDSP database; ref PDSP http://pdsp.med.unc.edu/; cited from earlier work
5-HT1A = conditions: read-out: Ki (nM) 5-HT1A; PDSP database; ref PDSP http://pdsp.med.unc.edu/; cited from earlier work
Beta1 = conditions: read-out: Ki (nM) Beta1; PDSP database; ref PDSP http://pdsp.med.unc.edu/; cited from earlier work
KOR = conditions: read-out: Ki (nM) KOR; PDSP database; ref PDSP http://pdsp.med.unc.edu/; cited from earlier work
5-HT1E = conditions: read-out: Ki (nM) 5-HT1E; PDSP database; ref PDSP http://pdsp.med.unc.edu/; cited from earlier work
Sigma-2 = conditions: read-out: Ki (nM) Sigma-2; PDSP database; ref PDSP http://pdsp.med.unc.edu/; cited from earlier work
Beta2 = conditions: read-out: Ki (nM) Beta2; PDSP database; ref PDSP http://pdsp.med.unc.edu/; cited from earlier work
H3 = conditions: read-out: Ki (nM) H3; PDSP database; ref PDSP http://pdsp.med.unc.edu/; cited from earlier work
D2R [9] = target: T3, D2R; test: DiscoveRx PathHunter β-arrestin-2 recruitment assay, CHO-K1 cells; assay type: cell-based; conditions: agonist mode; concentrations up to 100 μM
M2 = conditions: read-out: Ki (nM) M2; PDSP database; ref PDSP http://pdsp.med.unc.edu/; cited from earlier work
5-HT1B = conditions: read-out: Ki (nM) 5-HT1B; PDSP database; ref PDSP http://pdsp.med.unc.edu/; cited from earlier work
Alpha2A = conditions: read-out: Ki (nM) Alpha2A; PDSP database; ref PDSP http://pdsp.med.unc.edu/; cited from earlier work
NET = conditions: read-out: Ki (nM) NET; PDSP database; ref PDSP http://pdsp.med.unc.edu/; cited from earlier work
D5R [10] = target: T1, D5R; test: DiscoveRx PathHunter β-arrestin-2 recruitment assay, CHO-K1 cells; assay type: cell-based; conditions: agonist mode; concentrations up to 100 μM
D1R [11] = target: T4, D1R; test: Radioligand competition binding, [3H]-SCH23390, HEK293 membranes; conditions: competition with 0.5 nM [3H]-SCH23390; single site; n=3
H2 = conditions: read-out: Ki (nM) H2; PDSP database; ref PDSP http://pdsp.med.unc.edu/; cited from earlier work
5-HT1A receptor = conditions: ref Gao et al. 2011; Guo et al. 2009; cited from earlier work
Alpha2B = conditions: read-out: Ki (nM) Alpha2B; PDSP database; ref PDSP http://pdsp.med.unc.edu/; cited from earlier work
CB1 = conditions: read-out: Ki (nM) CB1; PDSP database; ref PDSP http://pdsp.med.unc.edu/; cited from earlier work
D4R [12] = target: T5, D4R (Homo sapiens, UniProt P21917); test: DiscoveRx PathHunter β-arrestin-2 recruitment assay, CHO-K1 cells; assay type: cell-based; conditions: agonist mode; concentrations up to 100 μM
5-HT6 = conditions: read-out: Ki (nM) 5-HT6; PDSP database; ref PDSP http://pdsp.med.unc.edu/; cited from earlier work
DOR = conditions: read-out: Ki (nM) DOR; PDSP database; ref PDSP http://pdsp.med.unc.edu/; cited from earlier work
D1 = conditions: read-out: Ki (nM) D1; PDSP database; ref PDSP http://pdsp.med.unc.edu/; cited from earlier work
D4R [13] = target: T5, D4R; test: Radioligand competition binding, [3H]-methylspiperone, CHO membranes; conditions: competition with 0.5 nM [3H]-methylspiperone; n=3
D1R [14] = target: T4, D1R; test: HTRF cAMP assay; assay type: cell-based; conditions: agonist mode; Supplemental Fig. 1
D2 = conditions: read-out: Ki (nM) D2; PDSP database; ref PDSP http://pdsp.med.unc.edu/; cited from earlier work
5-HT1D = conditions: read-out: Ki (nM) 5-HT1D; PDSP database; ref PDSP http://pdsp.med.unc.edu/; cited from earlier work
DAT = conditions: read-out: Ki (nM) DAT; PDSP database; ref PDSP http://pdsp.med.unc.edu/; cited from earlier work
D3R [15] = target: T2, D3R; test: Radioligand competition binding, [3H]-methylspiperone, HEK293 membranes; conditions: competition with 0.5 nM [3H]-methylspiperone; n=3

COc1cc2c(cc1O)[C@@H]1Cc3ccc(O)c(OC)c3CN1CC2 [(−)-stepholidine, (−)-Stepholidine]
Ki (Alpha1B): > 10000 nM | Ki (5-HT3): > 10000 nM | Ki (Alpha2C): 214 nM | Ki (5-HT5): > 10000 nM | Ki (5-HT2C): > 10000 nM | Ki (GABA-A): > 10000 nM | Ki (H1): > 10000 nM | agonist activity, cAMP accumulation (D5R [1]): failed to produce any measurable cAMP accumulation | Ki (Alpha1A): > 10000 nM | Ki (5-HT2A): > 10000 nM | Ki (M5): > 10000 nM | Ki (D3): 30.1 nM | Ki (H4): > 10000 nM | agonist activity, β-arrestin-2 recruitment (D3R [2]): failed to produce any measurable recruitment of β-arrestin-2 | Ki (Sigma-1): 1600 nM | Ki (D2R [3]): 0.0116 ± 0.0042 µM | agonist activity, Ca2+ mobilization (D1R–D2R heteromer; agonist mode, concentrations up to 50 μM): no Ca^2+ mobilization was detected | IC50 (D1R–D2R heteromer; read-out: IC50, inhibition of dopamine-stimulated calcium mobilization, EC80 (1 μM) dopamine, n=3): 0.0193 ± 0.0037 µM | Ki (5-HT7): > 10000 nM | agonist activity, cAMP accumulation (D1R [4]): has no effect on cAMP accumulation | Ki (CB2): > 10000 nM | agonist activity, β-arrestin-2 recruitment (D1R [5]): failed to produce any measurable recruitment of β-arrestin-2 | Ki (MOR): > 10000 nM | agonist activity, inhibition of forskolin-stimulated cAMP accumulation (D2R [6]): has no effect on inhibiting cAMP accumulation | Ki (SERT): > 10000 nM | metabolism after administration [7]: rapidly metabolized within minutes of administration | Ki (5-HT2B): 226 nM | Ki (D5): 4.4 nM | Ki ([8]; control, absence of GTPγS): 0.016 ± 0.0024 µM | Ki ([8]; presence of 1 mM GTPγS): 0.0192 ± 0.0044 µM | Ki (D4): 3750 nM | Ki (5-HT1A): 143 nM | Ki (Beta1): > 10000 nM | Ki (KOR): > 10000 nM | Ki (5-HT1E): > 10000 nM | Ki (Sigma-2): 53.4 nM | Ki (Beta2): > 10000 nM | Ki (H3): > 10000 nM | agonist activity, β-arrestin-2 recruitment (D2R [9]): failed to produce any measurable recruitment of β-arrestin-2 | Ki (M2): > 10000 nM | Ki (5-HT1B): 6980 nM | Ki (Alpha2A): > 10000 nM | Ki (NET): > 10000 nM | agonist activity, β-arrestin-2 recruitment (D5R [10]): failed to produce any measurable recruitment of β-arrestin-2 | Ki (D1R [11]): 0.0051 ± 0.0023 µM | Ki (H2): > 10000 nM | functional profile at the 5-HT1A receptor (5-HT1A receptor): partial agonist | Ki (Alpha2B): 6880 nM | Ki (CB1): > 10000 nM | agonist activity, β-arrestin-2 recruitment (D4R [12]): failed to produce any measurable recruitment of β-arrestin-2 | Ki (5-HT6): > 10000 nM | Ki (DOR): > 10000 nM | Ki (D1): 5.9 nM | Ki (D4R [13]): 1.45 µM | agonist activity, cAMP accumulation (HTRF) (D1R [14]): did not stimulate D1R-mediated cAMP accumulation | Ki (D2): 974 nM | Ki (5-HT1D): > 10000 nM | Ki (DAT): > 10000 nM | Ki (D3R [15]): 0.0234 ± 0.0087 µM
